Reference: US11512090B2, “Muscarinic acetylcholine M1 receptor antagonists” (PIPELINE THERAPEUTICS, INC., priority 2018, dated 2022)
Read-outs that look alike come from different tables or passages of the source.

Columns and labels:
Format in all cases: cell-based
M2 = target: T1, M2 (Homo sapiens, UniProt P08172); assay: In vitro functional assay of muscarinic acetylcholine receptor activity, M2
T1 sequence (P08172 1-466): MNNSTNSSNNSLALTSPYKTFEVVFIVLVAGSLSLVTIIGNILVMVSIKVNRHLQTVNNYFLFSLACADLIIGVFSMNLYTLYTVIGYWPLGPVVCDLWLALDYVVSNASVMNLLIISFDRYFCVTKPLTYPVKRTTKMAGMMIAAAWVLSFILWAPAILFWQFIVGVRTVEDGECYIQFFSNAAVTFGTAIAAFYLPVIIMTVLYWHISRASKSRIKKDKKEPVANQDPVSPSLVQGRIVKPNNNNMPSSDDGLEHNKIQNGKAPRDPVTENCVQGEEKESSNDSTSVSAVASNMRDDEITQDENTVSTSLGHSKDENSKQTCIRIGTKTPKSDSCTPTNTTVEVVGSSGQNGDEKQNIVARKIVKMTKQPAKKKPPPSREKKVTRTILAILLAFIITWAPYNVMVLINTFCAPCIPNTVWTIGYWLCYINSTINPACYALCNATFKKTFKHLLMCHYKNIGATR

human M1 receptor = target: T2, human M1 receptor (Homo sapiens, UniProt P11229); assay: In vitro functional assay of muscarinic acetylcholine receptor activity (aequorin calcium flux, antagonist mode vs EC80 acetylcholine), M1
T2 sequence (P11229 1-460): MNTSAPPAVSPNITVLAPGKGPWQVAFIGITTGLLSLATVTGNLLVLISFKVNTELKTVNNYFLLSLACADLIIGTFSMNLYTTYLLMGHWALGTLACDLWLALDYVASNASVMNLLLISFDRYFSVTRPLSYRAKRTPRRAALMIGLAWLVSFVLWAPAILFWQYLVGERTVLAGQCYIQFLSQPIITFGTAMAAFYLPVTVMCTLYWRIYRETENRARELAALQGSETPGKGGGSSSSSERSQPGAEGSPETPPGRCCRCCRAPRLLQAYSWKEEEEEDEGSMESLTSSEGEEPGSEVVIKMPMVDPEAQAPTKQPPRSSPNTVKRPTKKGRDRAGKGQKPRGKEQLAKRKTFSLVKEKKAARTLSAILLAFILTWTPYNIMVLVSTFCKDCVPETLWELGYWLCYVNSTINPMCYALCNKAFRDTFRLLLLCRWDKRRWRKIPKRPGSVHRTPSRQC
In short: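 CHO-K1 cells stably co-expressing human M1 and aequorin were loaded with 5 uM coelenterazine h for 4 h at room temperature in the dark. IC50 came from the drop in luminescence.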

M3 = M3 (Homo sapiens, UniProt P20309); assay: In vitro functional assay of muscarinic acetylcholine receptor activity, M3; conditions: antagonist IC50 at M3; read-out: M3 IC50
Chain of M3 (P20309 whole entry): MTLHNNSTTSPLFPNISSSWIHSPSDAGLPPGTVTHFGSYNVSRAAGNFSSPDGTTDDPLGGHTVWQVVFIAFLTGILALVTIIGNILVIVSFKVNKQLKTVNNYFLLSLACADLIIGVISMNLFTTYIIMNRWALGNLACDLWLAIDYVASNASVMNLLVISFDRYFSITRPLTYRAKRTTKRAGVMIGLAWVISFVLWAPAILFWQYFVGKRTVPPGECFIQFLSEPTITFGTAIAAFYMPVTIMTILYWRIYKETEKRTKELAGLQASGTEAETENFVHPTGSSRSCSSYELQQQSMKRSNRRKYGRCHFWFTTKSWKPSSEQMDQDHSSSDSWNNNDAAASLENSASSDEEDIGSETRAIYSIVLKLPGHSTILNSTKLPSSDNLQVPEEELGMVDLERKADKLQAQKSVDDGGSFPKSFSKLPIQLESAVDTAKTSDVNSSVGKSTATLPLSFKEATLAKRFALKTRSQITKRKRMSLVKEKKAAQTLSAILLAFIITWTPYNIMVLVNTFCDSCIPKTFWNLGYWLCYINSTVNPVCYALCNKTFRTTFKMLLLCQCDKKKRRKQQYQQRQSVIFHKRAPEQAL

[1] = antagonist IC50 at M2, read-out: M2 IC50
[2] = CHO-K1 cells stably expressing human M1 receptor with Aequorin, decrease in EC80 acetylcholine response, read-out: M1 IC50

Structure (SMILES) | IC50 (M2; [1]) [µM] | IC50 (human M1 receptor) [nM] | IC50 (M3) [µM] | IC50 (human M1 receptor; [2]) [nM] | IC50 (M2) [µM]
N#Cc1ccc(N2C3CCC2CN(C(=O)CCOCc2cccc4nccn24)C3)nc1 [Example 186, 6-{3-[3-({imidazo[1,2-a]pyridin-5-yl}methoxy)propanoyl]-3,8-diazabicyclo[3.2.1]octan-8-yl}pyridine-3-carbonitrile] | > 10 | < 100 | 1 to 10 |  | 
N#Cc1ccc(N2C3CCC2CN(C(=O)CCOCc2cccc4c2OCO4)C3)nc1 [Example 187, 6-(3-{3-[(2H-1,3-benzodioxol-4-yl)methoxy]propanoyl}-3,8-diazabicyclo[3.2.1]octan-8-yl)pyridine-3-carbonitrile] | > 10 | 100 to 1000 | > 10 |  | 
N#Cc1ccc(N2C3CCC2CN(C(=O)CCOCc2cccc4ncc(C(F)(F)F)n24)C3)nc1 [Example 188, 6-[3-(3-{[3-(trifluoromethyl)imidazo[1,2-a]pyridin-5-yl)methoxy}propanoyl)-3,8-diazabicyclo[3.2.1]octan-8-yl)pyridine-3-carbonitrile] | 1 to 10 |  | > 10 | 1000 to 10000 | 
O=C(CCNCc1cccc2ncnn12)N1CC2CCC(C1)N2c1ccc(-c2ccccc2)cn1 [Example 193, 1-[8-(5-phenylpyridin-2-yl)-3,8-diazabicyclo[3.2.1]octan-3-yl]-3-[({[1,2,4]triazolo[1,5-a]pyridin-5-yl}methyl)amino]propan-1-one] | > 10 |  | 1 to 10 | 1000 to 10000 | 
N#Cc1ccc(N2C3CCC2CN(C(=O)C2CC(=Cc4cccc5ncccc45)C2)C3)nc1 (stereo not drawn) [Example 194, 6-(3-{3-[(quinolin-5-yl)methylidene]cyclobutanecarbonyl}-3,8-diazabicyclo[3.2.1]octan-8-yl)pyridine-3-carbonitrile] |  | < 100 | 1 to 10 |  | 0.1 to 1
N#Cc1ccc(N2C3CCC2CN(C(=O)C2CC(=Cc4cccc5cnccc45)C2)C3)nc1 (stereo not drawn) [Example 195, 6-(3-{3-[(isoquinolin-5-yl)methylidene]cyclobutanecarbonyl}-3,8-diazabicyclo[3.2.1]octan-8-yl)pyridine-3-carbonitrile] | 1 to 10 |  | 1 to 10 | 1000 to 10000 | 
N#Cc1ccc(N2C3CCC2CN(C(=O)[C@H]2C[C@H](Oc4cccc5ncsc45)C2)C3)nc1 [Example 197, 6-{3-[(1r,3r)-3-(1,3-benzothiazol-7-yloxy)cyclobutanecarbonyl]-3,8-diazabicyclo[3.2.1]octan-8-yl}pyridine-3-carbonitrile] | > 10 | 100 to 1000 | > 10 |  | 
